In patent publication US9663460B2, “Sulfur derivatives as chemokine receptor modulators” (ALLERGAN, INC., priority 2010, dated 2017):

Biological target: CCR2 (Homo sapiens (Human), UniProt P41597)
Assay: Calcium activity assayed on the FLIPR Tetra in HEK-Gqi5 cells stably expressing CCR2
Assay type: cell-based
Settings: FLIPR Tetra calcium assay

Sequence of CCR2 (P41597 whole entry, species assumed): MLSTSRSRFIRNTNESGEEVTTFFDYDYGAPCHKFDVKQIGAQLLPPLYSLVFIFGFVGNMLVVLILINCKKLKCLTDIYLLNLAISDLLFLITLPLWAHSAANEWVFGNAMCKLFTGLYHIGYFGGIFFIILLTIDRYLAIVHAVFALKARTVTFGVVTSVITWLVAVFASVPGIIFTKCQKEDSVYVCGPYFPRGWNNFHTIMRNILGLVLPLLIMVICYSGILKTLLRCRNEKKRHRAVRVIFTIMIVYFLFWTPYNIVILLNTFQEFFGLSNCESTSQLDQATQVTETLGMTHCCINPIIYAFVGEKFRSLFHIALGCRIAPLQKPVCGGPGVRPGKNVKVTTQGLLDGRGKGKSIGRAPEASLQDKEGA

SMILES	CCR2 % ANTAGONISM	IC50
O=S(=O)(Nc1cc(Cl)ccc1SC(F)(F)F)c1cc2ccccc2o1 [N-{5-chloro-2-[(trifluoromethyl)thio]phenyl}-1-benzofuran-2-sulfonamide]	92%	333 nM
NC(=O)CC[S+]([O-])c1ccc(Cl)cc1NS(=O)(=O)c1ccc(Cl)c(C(F)(F)F)c1 (stereo not drawn) [3-{[4-chloro-2-({[4-chloro-3-(trifluoromethyl)phenyl]sulfonyl}amino)phenyl]sulfinyl}propanamide]	99%	797 nM
Nc1cccc(C[S+]([O-])c2ccc(Cl)cc2NS(=O)(=O)c2ccc(F)cc2F)c1 (stereo not drawn) [N-{2-[(3-aminobenzyl)sulfinyl]-5-chlorophenyl}-2,4-difluorobenzenesulfonamide]	99%	443 nM
CSc1ccc(Cl)cc1NS(=O)(=O)c1cccs1 [N-[5-chloro-2-(methylthio)phenyl]thiophene-2-sulfonamide]	0%	
C[S+]([O-])c1ccc(Cl)cc1NS(=O)(=O)c1ccco1 (stereo not drawn) [N-[5-chloro-2-(methylsulfinyl)phenyl]furan-2-sulfonamide]	96%	2320 nM
O=[N+]([O-])c1cccc(C[S+]([O-])c2ccccc2NS(=O)(=O)c2cc3ccccc3o2)c1 (stereo not drawn) [N-{2-[(3-nitrobenzyl)sulfinyl]phenyl}-1-benzofuran-2-sulfonamide]	97%	653 nM
CSc1ccc(Cl)cc1NS(=O)(=O)c1ccc(C)o1 [N-[5-chloro-2-(methylthio)phenyl]-5-methylfuran-2-sulfonamide]	77%	70 nM
CC(=O)NCCS(=O)(=O)c1ccc(Cl)cc1NS(=O)(=O)c1ccc(Cl)c(C(F)(F)F)c1 [N-(2-{[4-chloro-2-({[4-chloro-3-(trifluoromethyl)phenyl]sulfonyl}amino)phenyl]sulfonyl}ethyl)acetamide]	98%	5190 nM
CS(=O)(=O)c1ccc(Cl)cc1NS(=O)(=O)c1ccc(F)cc1F [N-[5-chloro-2-(methylsulfonyl)phenyl]-2,4-difluorobenzenesulfonamide]	91%	354 nM
NCCCSc1ccc(Cl)cc1NS(=O)(=O)c1cc2ccccc2o1 [N-{2-[(3-aminopropyl)thio]-5-chlorophenyl}-1-benzofuran-2-sulfonamide]	102%	
O=S(=O)(Cc1ccc[n+]([O-])c1)c1ccc(Cl)cc1NS(=O)(=O)c1cc2ccccc2o1 [N-(5-chloro-2-{[(1-oxidopyridin-3-yl)methyl]sulfonyl}phenyl)-1-benzofuran-2-sulfonamide]	81%	1750 nM
O=S(=O)(Nc1cc(Cl)ccc1[S+]([O-])Cc1ncc[nH]1)c1ccc(Cl)c(C(F)(F)F)c1 (stereo not drawn) [4-chloro-N-{5-chloro-2-[(1H-imidazol-2-ylmethyl)sulfinyl]phenyl}-3-(trifluoromethyl)benzenesulfonamide]	109%	163 nM
Nc1cccc(CS(=O)(=O)c2ccccc2NS(=O)(=O)c2cc3ccccc3o2)c1 [N-{2-[(3-aminobenzyl)sulfonyl]phenyl}-1-benzofuran-2-sulfonamide]	94%	41 nM
COc1ccc(SCc2cccc(N)c2)c(NS(=O)(=O)c2cc3ccccc3o2)c1 [N-{2-[(3-aminobenzyl)thio]-5-methoxyphenyl}-1-benzofuran-2-sulfonamide]	100%	1400 nM
C[S+]([O-])c1ccc(Cl)cc1NS(=O)(=O)c1ccc(Cl)c(C(F)(F)F)c1 (stereo not drawn) [4-chloro-N-[5-chloro-2-(methylsulfinyl)phenyl]-3-(trifluoromethyl)benzenesulfonamide]	78%	14 nM
O=S(=O)(Nc1cc(Cl)ccc1[S+]([O-])CCc1cn[nH]c1)c1cc2ccccc2o1 (stereo not drawn) [N-(5-chloro-2-{[2-(1H-pyrazol-4-yl)ethyl]sulfinyl}phenyl)-1-benzofuran-2-sulfonamide]	67%	1060 nM
O=c1cc(CSc2ccc(Cl)cc2NS(=O)(=O)c2cc3ccccc3o2)[nH]c(=O)[nH]1 [N-(5-chloro-2-{[(2,6-dioxo-1,2,3,6-tetrahydropyrimidin-4-yl)methyl]thio}phenyl)-1-benzofuran-2-sulfonamide]	98%	2370 nM
O=S(=O)(Nc1cc(Cl)ccc1SCc1ccccn1)c1cc2ccccc2o1 [N-{5-chloro-2-[(pyridin-2-ylmethyl)thio]phenyl}-1-benzofuran-2-sulfonamide]	91%	35 nM
Nc1cccc(C[S+]([O-])c2ccc(Cl)cc2NS(=O)(=O)c2cc3ccccc3o2)n1 (stereo not drawn) [N-(2-{[(6-aminopyridin-2-yl)methyl]sulfinyl}-5-chlorophenyl)-1-benzofuran-2-sulfonamide]	99%	28 nM
O=S(=O)(Cc1cccnc1)c1ccc(Cl)cc1NS(=O)(=O)c1cc2ccccc2o1 [N-{5-chloro-2-[(pyridin-3-ylmethyl)sulfonyl]phenyl}-1-benzofuran-2-sulfonamide]	93%	32 nM

SMILES	CCR2 % ANTAGONISM	IC50
NC(=O)NCCSc1ccc(Cl)cc1NS(=O)(=O)c1cc2ccccc2o1 [N-[2-({2-[(aminocarbonyl)amino]ethyl}thio)-5-chlorophenyl]-1-benzofuran-2-sulfonamide]	103%	80 nM
O=C1NCC(CS(=O)(=O)c2ccc(Cl)cc2NS(=O)(=O)c2cc3ccccc3o2)O1 (stereo not drawn) [N-(5-chloro-2-{[(2-oxo-1,3-oxazolidin-5-yl)methyl]sulfonyl}phenyl)-1-benzofuran-2-sulfonamide]	98%	2560 nM
Cc1n[nH]c(C)c1CCS(=O)(=O)c1ccc(Cl)cc1NS(=O)(=O)c1cc2ccccc2o1 [N-(5-chloro-2-{[2-(3,5-dimethyl-1H-pyrazol-4-yl)ethyl]sulfonyl}phenyl)-1-benzofuran-2-sulfonamide]	96%	1090 nM
CSc1ccc(Cl)cc1NS(=O)(=O)c1ccc(Br)cc1 [4-bromo-N-[5-chloro-2-(methylthio)phenyl]benzenesulfonamide]	76%	1330 nM
O=S(=O)(Cc1ccccn1)c1ccc(Cl)cc1NS(=O)(=O)c1cc2ccccc2o1 [N-{5-chloro-2-[(pyridin-2-ylmethyl)sulfonyl]phenyl}-1-benzofuran-2-sulfonamide]	100%	29 nM
C[S+]([O-])c1ccc(Cl)cc1NS(=O)(=O)c1ccc(Cl)cc1F (stereo not drawn) [4-chloro-N-[5-chloro-2-(methylsulfinyl)phenyl]-2-fluorobenzenesulfonamide]	103%	85 nM
O=S(=O)(Nc1cc(Cl)ccc1SCc1ncccn1)c1cc2ccccc2o1 [N-{5-chloro-2-[(pyrimidin-2-ylmethyl)thio]phenyl}-1-benzofuran-2-sulfonamide]	100%	549 nM
C[S+]([O-])c1ccc(Cl)cc1NS(=O)(=O)c1ccc(Cl)c(Cl)c1 (stereo not drawn) [3,4-dichloro-N-[5-chloro-2-(methylsulfinyl)phenyl]benzenesulfonamide]	87%	44 nM
Nc1cccc(CS(=O)(=O)c2ccc(Cl)cc2NS(=O)(=O)c2ccc(Cl)cc2)c1 [N-{2-[(3-aminobenzyl)sulfonyl]-5-chlorophenyl}-4-chlorobenzenesulfonamide]	99%	421 nM
O=S(=O)(Cc1ncccn1)c1ccc(Cl)cc1NS(=O)(=O)c1cc2ccccc2o1 [N-{5-chloro-2-[(pyrimidin-2-ylmethyl)sulfonyl]phenyl}-1-benzofuran-2-sulfonamide]	104%	151 nM
NCCSc1ccc(Cl)cc1NS(=O)(=O)c1ccc(Cl)c(C(F)(F)F)c1 [N-{2-[(2-aminoethyl)thio]-5-chlorophenyl}-4-chloro-3-(trifluoromethyl)benzenesulfonamide]	97%	1070 nM
CSc1ccc(Cl)cc1NS(=O)(=O)c1ccc(Cl)cc1 [4-chloro-N-[5-chloro-2-(methylthio)phenyl]benzenesulfonamide]	94%	406 nM
O=S(=O)(Nc1cc(Cl)ccc1SCCO)c1ccc(Cl)c(C(F)(F)F)c1 [4-chloro-N-{5-chloro-2-[(2-hydroxyethyl)thio]phenyl}-3-(trifluoromethyl)benzenesulfonamide]	88%	153 nM
Nc1cccc(CSc2ccc(F)cc2NS(=O)(=O)c2cc3ccccc3o2)c1 [N-{2-[(3-aminobenzyl)thio]-5-fluorophenyl}-1-benzofuran-2-sulfonamide]	97%	55 nM
CN(C)C(=O)CCSc1ccc(Cl)cc1NS(=O)(=O)c1cc2ccccc2o1 [3-({2-[(1-benzofuran-2-ylsulfonyl)amino]-4-chlorophenyl}thio)-N,N-dimethylpropanamide]	100%	146 nM
NCC[S+]([O-])c1ccc(Cl)cc1NS(=O)(=O)c1ccc(Cl)c(C(F)(F)F)c1 (stereo not drawn) [N-{2-[(2-aminoethyl)sulfinyl]-5-chlorophenyl}-4-chloro-3-(trifluoromethyl)benzenesulfonamide]	84%	3530 nM
O=[N+]([O-])c1cccc(CS(=O)(=O)c2ccc(F)cc2NS(=O)(=O)c2cc3ccccc3o2)c1 [N-{5-fluoro-2-[(3-nitrobenzyl)sulfonyl]phenyl}-1-benzofuran-2-sulfonamide]	81%	693 nM
O=S(=O)(Cc1ncc[nH]1)c1ccc(Cl)cc1NS(=O)(=O)c1cc2ccccc2o1 [N-{5-chloro-2-[(1H-imidazol-2-ylmethyl)sulfonyl]phenyl}-1-benzofuran-2-sulfonamide]	109%	1350 nM
CN(C)C(=O)CC[S+]([O-])c1ccc(Cl)cc1NS(=O)(=O)c1ccc(Cl)cc1F (stereo not drawn) [3-[(4-chloro-2-{[(4-chloro-2-fluorophenyl)sulfonyl]amino}phenyl)sulfinyl]-N,N-dimethylpropanamide]	99%	221 nM
CN(C)C(=O)CSc1ccc(Cl)cc1NS(=O)(=O)c1ccc(Cl)c(C(F)(F)F)c1 [2-{[4-chloro-2-({[4-chloro-3-(trifluoromethyl)phenyl]sulfonyl}amino)phenyl]thio}-N,N-dimethylacetamide]	92%	118 nM
